# Read-outs that look alike come from different tables or passages of the source.
# Columns and labels:
# Format in all cases: cell-based, human
# [1] = test system: KRAS G12C mutant NCI-H358 cells; assay: Cell proliferation inhibition experiment, 3D spheroid, CellTiter-Glo, NCI-H358; details: NCI-H358 (KRAS G12C mutant) 3D spheroid, 5 days with compound, CellTiter-Glo, read-out: H358 IC50
# Excerpt: (§1) Raw materials and instruments: NCI-H358 purchased from ATCC; article number: CRL-5807; batch number: 70010825; A549 purchased from ATCC; article number: CCL-185; batch number: 70007820; RPMI1640 purchased from Gibco; article number: 11875-093; batch number: 2152748; F-12K purchased from Gibco; article number: 21127-022; batch number: 2185853; FBS purchased from Gibco; article number: 10099-141; batch number: 2109290CP; PS purchased from Gibco; article number: 15140-122; batch number: 2145451; Trypsin-EDTApurchased from Gibco; article number: 25200-072; batch number: 2085552; CellTiter Glo working solution purchased from Promega; article number: G9683; batch number: 398478; DMSO purchased from VWR AMRESCO; article number: 0231-500ML; batch number: 18C0656168; 384-well spheroid plate purchased from Corning; article number: 3830; batch number: 27519032; white opaque 384-well plate purchased from Corning; article number: 3570; batch number: 26819023; microplate reader purchased from PerkinElmer; model: Envision MLD2105-0020; equipment number 1050369.
# (§2) NCI-H358 is a KRAS G12C mutant human non-small cell lung cancer cell line, cultured in 10% FBS RPMI-1640+1% PS culture medium; and A549 is a KRAS G12S mutant human lung adenocarcinoma cell line, cultured in 10% FBS F-12K+1% PS culture medium. Cells at logarithmic growth stage were taken, digested with trypsin-EDTA, then collected and counted. H358 was adjusted to 1.8 E4 cells/mL with 2% FBS RPMI-1640 culture medium, and A549 was adjusted to 8.9 E3 cells/mL with 2% FBS F-12K culture medium; 800 (45 μL) H358 or 400 (45 μL) A549 were inoculated respectively in a 384-well spheroid plate and cultured overnight to establish a 3D cell model. A 3.16-fold gradient concentration stock solution of 1000× compound was prepared with DMSO, and diluted 100-fold to 10× compound stock solution with 2% FBS culture medium. On the second day after cell inoculation, 5 μL of 10× compound stock solution was added to each cell culture well, with a final concentration of 1× and a DMSO content of 0.1%. DMSO was used as experimental control (control), and 2% FBS culture medium was used as blank control (blank). After 5 days of compound cell culture, 25 μL of CellTiter-Glo working solution was added to each well, mixed well at 400 rpm and incubated for 30 minutes. After standing at room temperature for 30 minutes, 40 μL of the mixed solution was transferred to a white opaque 384-well plate, and the luminescence chemiluminescence value was read with a microplate reader. The cell proliferation inhibition rate IR (%)=(RLU control -RLU compound)/(RLU control -RLU blank) x100% was calculated. The gradient dilution concentration of the compound and the corresponding cell proliferation inhibition rate were fitted by Prism 6 four-parameter method, and the IC50 value was calculated. The inhibitory activity of the compounds prepared in the above embodiments of the present disclosure on KRAS G12C mutant NCI-H358 cells was 0.0001 μM to 0.5 μM; the inhibitory activity of some compounds on KRAS G12C mutant NCI-H358 cells was 0.001 μM to 0.1 μM or 0.001 μM to 0.05 μM.
# [2] = test system: KRAS G12C mutant MIA PaCa-2 cells; assay: Cell proliferation inhibition experiment, 3D spheroid, CellTiter-Glo, MIA PaCa-2; details: 3D cell model in 384-well spheroid plate, 5 days, CellTiter-Glo, read-out: MIA-PaCa2 IC50
# Excerpt: Raw materials and instruments: MIA PaCa-2 purchased from ATCC; article number: CRL-1420; batch number: 63143594; DMEM purchased from Gibco; article number: 11995-065; batch number: 2186878; FBS purchased from Gibco; article number: 10099-141; batch number: 2109290CP; Horse Serum purchased from Gibco; article number: 16050-122; batch number: 1818976; PS purchased from Gibco; article number: 15140-122; batch number: 2145451; Trypsin-EDTA purchased from Gibco; article number: 25200-072; batch number: 2085552; CellTiter Glo working solution purchased from Promega; article number: G9683; batch number 398478; DMSO purchased from VWR AMRESCO; article number: 0231-500ML; batch number: 18C0656168; 384-well spheroid plate purchased from Corning; article number: 3830; batch number: 27519032; white opaque 384-well plate purchased from Corning; article number: 3570; batch number: 26819023; microplate reader purchased from PerkinElmer; model: Envision MLD2105-0020; equipment number 1050369.
# MIA PaCa-2 is a KRAS G12C mutant human pancreatic cancer cell line, cultured in 10% FBS+2.5% Horse Serum DMEM+1% PS culture medium; cells at logarithmic growth stage were taken, digested with trypsin-EDTA, then collected and counted, and 200 MIA PaCa-2 were inoculated in a 384-well spheroid plate, respectively, and cultured overnight to establish a 3D cell model. A 3.16-fold gradient concentration stock solution of 1000× compound was prepared with DMSO, and diluted 100-fold to 10× compound stock solution with culture medium. On the second day after cell inoculation, 10× compound stock solution was added to each cell culture well, with a final concentration of 1× and a DMSO content of 0.1%. DMSO was used as experimental control (control), and culture medium was used as blank control (blank). After 5 days of compound cell culture, 30 μL of CellTiter-Glo working solution was added to each well, mixed well and incubated for 30 minutes. After standing at room temperature for 30 minutes, 40 μL of the mixed solution was transferred to a white opaque 384-well plate, and the luminescence chemiluminescence value was read with a microplate reader. The cell proliferation inhibition rate IR (%)=(RLU control -RLU compound)/(RLU control−RLU blank)×100% was calculated. The gradient dilution concentration of the compound and the corresponding cell proliferation inhibition rate were fitted by XLFit four-parameter method, and the IC50 value was calculated. The inhibitory activity of the compounds prepared in the above embodiments of the present disclosure on KRAS G12C mutant MIA PaCa-2 cells was 0.0001 μM to 0.5 μM; the inhibitory activity of some compounds on KRAS G12C mutant MIA PaCa-2 cells was 0.001 μM to 0.1 μM or 0.001 μM to 0.05 μM.
# [3] = test system: A549 cells (KRAS G12S mutant); assay: Cell proliferation inhibition experiment, 3D spheroid, CellTiter-Glo, A549; details: A549 (KRAS G12S mutant) 3D spheroid, 5 days with compound, CellTiter-Glo, read-out: A549 IC50
# Excerpt: as §1, §2
# [4] = Homo sapiens, MIA PaCa-2, 120 h
Structure (SMILES),"IC50 ([1]; Homo sapiens, NCI-H358, 120 h) [nM]","IC50 [2, 4] [nM]","IC50 ([3]; Homo sapiens, A549, 120 h) [nM]",IC50 [1] [nM],IC50 [2] [nM],IC50 [3] [nM]
"C=CC(=O)N1CCN2C(=O)c3c(N4CC5CN(C)CC5C4)nc(-c4c(O)cccc4F)c(Cl)c3OC[C@H]2C1 (stereo partly drawn) [Z60, (6aR)-8-acryloyl-4-chloro-3-(2-fluoro-6-hydroxyphenyl)-1-(5-methylhexahydropyrrolo[3,4-c]pyrrol-2 (1H)-yl)-6,6a,7,8,9,10-hexahydro-12H-pyrazino[2,1-c]pyrido[3,4-f][1,4]oxazepin-12-one]",125,94,> 30000,,,
"C=CC(=O)N1CCN2C(=O)c3c(-c4ccccc4)nc(-c4c(O)cccc4F)c(Cl)c3OC[C@H]2C1 [Z53, (6aR)-8-acryloyl-4-chloro-3-(2-fluoro-6-hydroxyphenyl)-1-phenyl-6,6a,7,8,9,10-hexahydro-12H-pyrazino[2,1-c]pyrido[3,4-f]oxazepin-12-one]",,,,146,292,> 30000
"C=CC(=O)N1CCN2C(=O)c3c(-c4cn(C)nc4C)nc(-c4c(O)cccc4F)c(Cl)c3OC[C@H]2C1 [Z74, (6aR)-8-acryloyl-4-chloro-1-(1,3-dimethyl-1H-pyrazol-4-yl)-3-(2-fluoro-6-hydroxyphenyl)-6,6a,7,8,9,10-hexahydro-12H-pyrazino[2,1-c]pyrido[3,4-f][1,4]oxazepin-12-one]",324,,> 30000,,,
"C=CC(=O)N1CCN2C(=O)c3c(OC[C@H]4CCCN4C)nc(-c4c(O)cccc4F)c(Cl)c3OC[C@H]2C1 [Z13, (6aR)-8-acryloyl-4-chloro-3-(2-fluoro-6-hydroxyphenyl)-1-(((R)-1-methylpyrrolidin-2-yl)methoxy)-6,6a,7,8,9,10-hexahydro-12H-pyrazino[2,1-c]pyrido[3,4-f][1,4]oxazepin-12-one]",51,,> 5000,,,
"C=CC(=O)N1CCN2C(=O)c3c(N4CCN5C(=O)CC[C@@H]5C4)nc(-c4c(O)cccc4F)c(Cl)c3OC[C@H]2C1 (single isomer, unassigned) [Z317a-2]",108,,> 30000,,,
"C=CC(=O)N1CCN2C(=O)c3c(N4CCS(=O)(=O)CC4)nc(-c4c(O)cccc4F)c(Cl)c3OC[C@H]2C1 [Z26, (6aR)-8-acryloyl-4-chloro-1-(1,1-dioxidothiomorpholino)-3-(2-fluoro-6-hydroxyphenyl)-6,6 a,7,8,9,10-hexahydro-12H-pyrazino[2,1-c]pyrido[3,4-f][1,4]oxazepin-12-one]",479,,> 30000,,,

# Further molecules by falling IC50 ([1]; Homo sapiens, NCI-H358, 120 h), results first:
"IC50 ([1]; Homo sapiens, NCI-H358, 120 h) [nM]","IC50 [2, 4] [nM]","IC50 ([3]; Homo sapiens, A549, 120 h) [nM]",IC50 [1] [nM],IC50 [2] [nM],IC50 [3] [nM],Structure (SMILES)
39,67,> 20000,,,,"C=CC(=O)N1CCN2C(=O)c3c(N4CCOCC4)nc(-c4c(O)cccc4F)c(Cl)c3OC[C@H]2C1 [Z10, (6aR)-8-acryloyl-4-chloro-3-(2-fluoro-6-hydroxyphenyl)-1-morpholino-6,6a,7,8,9,10-hexahydro-12H-pyrazino[2,1-c]pyrido[3,4-f][1,4]oxazepin-12-one]"
37,,> 1000,,,,"C=CC(=O)N1CCN2C(=O)c3c(Nc4c(C)c(Cl)nn4C(C)C)nc(-c4c(O)cccc4F)c(Cl)c3OC[C@H]2C1 [Z16, (6aR)-8-acryloyl-4-chloro-1-((3-chloro-1-isopropyl-4-methyl-1H-pyrazol-5-yl)amino)-3-(2-fluoro-6-hydroxyphenyl)-6,6a,7,8,9,10-hexahydro-12H-pyrazino[2,1-c]pyrido[3,4-f][1,4]oxazepin-12-one]"
36,39,> 5000,,,,"C=CC(=O)N1CCN2C(=O)c3c(N4CCOC[C@@H]4CC)nc(-c4c(O)cccc4F)c(Cl)c3OC[C@H]2C1 [Z52, (6aR)-8-acryloyl-4-chloro-1-((S)-3-ethylmorpholino)-3-(2-fluoro-6-hydroxyphenyl)-6,6a,7,8,9,10-hexahydro-12H-pyrazino[2,1-c]pyrido[3,4-f][1,4]oxazepin-12-one]"
35,63,> 30000,,,,"C=CC(=O)N1CCN2Cc3c(Nc4c(C)ccnc4C(C)C)nc(-c4c(O)cccc4F)c(Cl)c3OC[C@H]2C1 [Z19, 1-((6aR)-4-chloro-3-(2-fluoro-6-hydroxyphenyl)-1-((2-isopropyl-4-methylpyridin-3-yl)amino)-6a,7,9,10-tetrahydro-12H-pyrazino[2,1-c]pyrido[3,4-f][1,4]oxazepin-8(6H)-yl)prop-2-en-1-one]"
32,81,4910,,,,"C=CC(=O)N1CCN2C(=O)c3c(N4CCC5(CCCC5)C4)nc(-c4c(O)cccc4F)c(Cl)c3OC[C@H]2C1 [Z34, (6aR)-8-acryloyl-4-chloro-3-(2-fluoro-6-hydroxyphenyl)-1-(2-azaspiro[4.4]nonan-2-yl)-6,6a,7,8,9,10-hexahydro-12H-pyrazino[2,1-c]pyrido[3,4-f][1,4]oxazepin-12-one]"
30,77,2430,,,,"C=CC(=O)N1CCN2C(=O)c3c(N[C@@H](C)c4ccccc4)nc(-c4c(O)cccc4F)c(Cl)c3OC[C@H]2C1 [Z29, (6aR)-8-acryloyl-4-chloro-3-(2-fluoro-6-hydroxyphenyl)-1-(((S)-1-phenylethyl)amino)-6,6a,7,8,9,10-hexahydro-12H-pyrazino[2,1-c]pyrido[3,4-f][1,4]oxazepin-12-one]"
